Assays:
Assay type in all cases: cell-based
ΔF508-CFTR [1] = target: T1, ΔF508-CFTR (Homo sapiens, UniProt P13569, DEL508-508); assay: CFTR cell surface levels using HRP-tagged ΔF508-CFTR expressing CFBE cells, in the presence of a co-corrector; conditions: HRP-tagged ΔF508-CFTR expressing CFBE cells, in the presence of 3 μM co-corrector; for EC50: read-out: EC50
T1 construct: host or cells: CFBE41o-, doxycycline-inducible
Method in brief: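 Cells were seeded with 0.5 μg/mL doxycycline and held 68 h at 37 °C. Test compounds plus 3 μM co-corrector (final 0.1% DMSO) were then added for 20 h at 33 °C. Washed cells received HRP substrate, and luminescence was normalized between DMSO and 3 μM co-corrector controls.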

CFTR ΔF508 = target: T2, CFTR ΔF508 (Homo sapiens, UniProt P13569, DEL508-508); assay: Chronic TECC assay on primary bronchial epithelial cells (corrector, co-corrector and potentiator); conditions: chronic TECC, AUC = full area under the curve upon forskolin stimulation, with co-corrector and potentiator, 24 hours
T2 construct: bronchial epithelial cells isolated from CF patients homozygous for the CFTR ΔF508 mutation; McGill University; Asterand; University of North Carolina hAEC-CF; host or cells: primary human bronchial epithelial cells from CF patients homozygous for ΔF508
T2 sequence (P13569 with tags, fused parts or gaps DEL508-508): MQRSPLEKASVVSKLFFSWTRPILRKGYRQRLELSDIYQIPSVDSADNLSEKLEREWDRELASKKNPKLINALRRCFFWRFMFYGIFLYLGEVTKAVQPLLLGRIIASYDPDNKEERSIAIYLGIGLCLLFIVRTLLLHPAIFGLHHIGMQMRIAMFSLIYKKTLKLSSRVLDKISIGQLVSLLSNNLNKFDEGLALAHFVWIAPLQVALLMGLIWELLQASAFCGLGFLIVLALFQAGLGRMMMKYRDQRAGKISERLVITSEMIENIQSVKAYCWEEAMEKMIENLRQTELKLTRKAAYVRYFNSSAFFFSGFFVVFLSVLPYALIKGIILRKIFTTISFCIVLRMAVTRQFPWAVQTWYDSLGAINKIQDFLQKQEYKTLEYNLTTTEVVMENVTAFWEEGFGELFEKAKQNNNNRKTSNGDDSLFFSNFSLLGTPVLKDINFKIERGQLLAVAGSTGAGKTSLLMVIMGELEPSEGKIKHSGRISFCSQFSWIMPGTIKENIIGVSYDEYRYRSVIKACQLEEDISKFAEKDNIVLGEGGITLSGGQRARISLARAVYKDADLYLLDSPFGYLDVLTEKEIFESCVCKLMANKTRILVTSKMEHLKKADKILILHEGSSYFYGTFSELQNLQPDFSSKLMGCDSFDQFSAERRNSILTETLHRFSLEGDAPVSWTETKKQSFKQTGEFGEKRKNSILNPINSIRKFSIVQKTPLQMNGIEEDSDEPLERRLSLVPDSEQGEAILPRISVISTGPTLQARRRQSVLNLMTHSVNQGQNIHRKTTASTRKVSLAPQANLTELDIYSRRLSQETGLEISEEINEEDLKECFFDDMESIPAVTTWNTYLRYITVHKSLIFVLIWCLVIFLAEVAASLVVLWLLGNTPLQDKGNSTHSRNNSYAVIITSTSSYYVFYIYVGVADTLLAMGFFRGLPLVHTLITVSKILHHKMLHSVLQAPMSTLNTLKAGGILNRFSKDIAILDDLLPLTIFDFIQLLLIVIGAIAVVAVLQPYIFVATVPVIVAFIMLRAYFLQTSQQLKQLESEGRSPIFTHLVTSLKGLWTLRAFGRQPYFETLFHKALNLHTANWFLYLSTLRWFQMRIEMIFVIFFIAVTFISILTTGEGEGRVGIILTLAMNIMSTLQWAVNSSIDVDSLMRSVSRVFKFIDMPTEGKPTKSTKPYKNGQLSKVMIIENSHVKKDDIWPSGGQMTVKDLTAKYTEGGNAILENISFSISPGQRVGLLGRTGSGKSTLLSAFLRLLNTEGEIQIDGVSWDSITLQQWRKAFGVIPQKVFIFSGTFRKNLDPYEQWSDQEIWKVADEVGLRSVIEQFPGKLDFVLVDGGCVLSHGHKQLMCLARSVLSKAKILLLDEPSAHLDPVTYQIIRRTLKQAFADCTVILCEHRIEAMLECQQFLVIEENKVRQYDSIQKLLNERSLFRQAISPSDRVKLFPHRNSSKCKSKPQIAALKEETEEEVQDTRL
Description: Primary Bronchial Epithelial Cells Protocol
The TECC (Tranepithelial Clamp Circuit, EP-design) assay measures the functionality of the cystic fibrosis Transmembrane Conductance regulator (CFTR) by measuring the short circuit current (Isc) generated over the basolateral and apical membrane of lung epithelial cells. In TECC the transepithelial potential PD and transepithelial resistance (Rt)) are measured in an open circuit and transformed to Ieq using Ohm's law. 24 Wells can be measured simultaneously allowing a higher throughput compared to Ussing chambers.
For this purpose, bronchial epithelial cells isolated from CF patients homozygous for the CFTR ΔF508 mutation (hAEC-CF, Epithelix, Geneva, Switzerland; McGill University, Montreal, Qc; Asterand, Detroit, Mich.; University of North Carolina, Chapel Hill, N.C.) are plated on type IV collagen-coated Transwell® supports (Costar). Human airway epithelia are generated by provision of an air-liquid interface for 21 days to form well-differentiated polarized cultures that resemble in vivo pseudo-stratified ciliated epithelium (Fulcher, M. L., Gabriel, S., Burns, K. A., Yankaskas, J. R., Randell, S. H., 2005. Well-differentiated human airway epithelial cell cultures. Methods Mol. Med. 107, 183-206). The differentiated cells are treated with test corrector compound(s) (corrector alone or in combination with co-corrector, 4-[(2R,4R)-4-({[1-(2,2-difluoro-1,3-benzodioxol-5-yl)cyclopropyl]carbonyl}amino)-7-methoxy-3,4-dihydro-2H-chromen-2-yl]benzoic acid (G924806/A-1618261) (“acute”) or test corrector compounds, co-corrector and potentiator, N-(3-carbamoyl-5,5,7,7-tetramethyl-4,7-dihydro-5H-thieno[2,3-c]pyran-2-yl)-1H-pyrazole-5-carboxamide GLPG1837, (“chronic”) for 24 hours basolaterally to allow sufficient expression of properly folded CFTR protein on the membrane. All compound plates contained negative controls (DMSO) and positive controls (0.15 μM, 4-[(2R,4R)-4-({[1-(2,2-difluoro-1,3-benzodioxol-5-yl)cyclopropyl]carbonyl}amino)-7-(difluoromethoxy)-3,4-dihydro-2H-chromen-2-yl]benzoic acid).
For electrophysiological recording of the “chronic” experiments, the human airway epithelia are mounted in the TECC heating plate for electrophysiological measurement and kept at 37° C. The epithelia are bathed in a NaCl-Ringer solution (120 mM NaCl, 25 mM NaHCO3, 1.2 mM CaCl2, 1.2 mM MgCl2, 0.8 mM KH2PO4, 0.8 mM K2HPO4, pH 7.4, 5 mM glucose) on both the basolateral and apical sides. Test compounds (corrector, co-corrector, 4-[(2R,4R)-4-({[1-(2,2-difluoro-1,3-benzodioxol-5-yl)cyclopropyl]carbonyl}amino)-7-(difluoromethoxy)-3,4-dihydro-2H-chromen-2-yl]benzoic acid, and potentiator, N-(3-carbamoyl-5,5,7,7-tetramethyl-4,7-dihydro-5H-thieno[2,3-c]pyran-2-yl)-1H-pyrazole-5-carboxamide), are re-added to the recording solution prior to measurement. Apical amiloride is used to inhibit the endogenous ENaC currents while forskolin is applied on both apical and basolateral side to stimulate CFTR. Measurements are done during a 20 minute timeframe with recordings every 2 minutes. The increase in Ieq is used as a measure for the increased CFTR activity, EC50 values can be generated by measuring impact of different concentrations of compound on Ieq on primary cells, for this purpose each transwell is treated with a different compound concentration. Inhibitor-172, an inhibitor specific for CFTR, is used to test the specificity of the tested compounds. Raw data were normalized to percentage activity values using the equation: 100×(Sample−Negative control)/(Positive control−Negative Control).

ΔF508-CFTR [2] = target: T1, ΔF508-CFTR; assay: CFTR cell surface levels using HRP-tagged ΔF508-CFTR expressing CFBE cells, intrinsic corrector capacity; conditions: HRP-tagged ΔF508-CFTR CFBE41o- cells, compounds alone (intrinsic corrector capacity), 20 hours at 33° C.
Method in brief: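 Here the cells express ΔF508-CFTR with horseradish peroxidase inserted in extracellular loop 4, so only rescued channel at the surface gives luminescent signal. Compounds act on their own, 20 h at the reduced temperature of 33 °C; values are percent activity relative to DMSO and a 3 μM corrector.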

T1 sequence (P13569 with tags, fused parts or gaps DEL508-508): as above

Row | Compound | % Activation (ΔF508-CFTR [1]) [%] | EC50 (ΔF508-CFTR [1]) [nM] | EC50 (CFTR ΔF508; read-out: EC50 (nM) (AUC)) | % Activity at 1 μM (AUC**) (CFTR ΔF508; 1 μM) [%] | % Activation (ΔF508-CFTR [2]; positive control 3 μM corrector) [%] | EC50 (ΔF508-CFTR [2]; read-out: EC50) [nM]
1 | COCC1CCN(c2cc(C(=O)O)nc3c2c(C2CCC2)nn3-c2ccc(F)cc2)CC1 [compound 657, 3-cyclobutyl-1-(4-fluorophenyl)-4-[4-(methoxymethyl)piperidin-1-yl]-1H-pyrazolo[3,4-b]pyridine-6-carboxylic acid] | 543 | 306 | 78 | – | – | –
2 | O=C(O)c1cc(N2CCN(c3ccncc3)CC2)c2c(C3CCC3)nn(C3CCCCC3)c2n1 [compound 809, 3-cyclobutyl-1-cyclohexyl-4-[4-(pyridin-4-yl)piperazin-1-yl]-1H-pyrazolo[3,4-b]pyridine-6-carboxylic acid] | 452.2 | 184 | – | 186.6667 | – | –
3 | CC(C)c1nn(-c2cccc(N(C)C)c2)c2nc(C(=O)O)cc(-c3ccc(N4CCOCC4)nc3)c12 [compound 85, 1-[3-(dimethylamino)phenyl]-4-[6-(morpholin-4-yl)pyridin-3-yl]-3-(propan-2-yl)-1H-pyrazolo[3,4-b]pyridine-6-carboxylic acid] | 504.7 | 702 | – | – | 314.6 | 920

From patent US9796711B2, “Substituted pyrazolo[3,4-b]pyridin-6-carboxylic acids and method of use” (AbbVie S.àr.l., priority 2015, dated 2017)
